# Patent publication US6482851B1, “Synthesis of dysidiolide and uses thereof” (Sloan-Kettering Institute for Cancer Research, priority 1998, dated 2002)
# Columns and labels:
# [1] = biological target: T1, human cdc25A protein phosphatase (Homo sapiens, UniProt P30304); details: cited from earlier work
# T1 sequence (P30304 1-524): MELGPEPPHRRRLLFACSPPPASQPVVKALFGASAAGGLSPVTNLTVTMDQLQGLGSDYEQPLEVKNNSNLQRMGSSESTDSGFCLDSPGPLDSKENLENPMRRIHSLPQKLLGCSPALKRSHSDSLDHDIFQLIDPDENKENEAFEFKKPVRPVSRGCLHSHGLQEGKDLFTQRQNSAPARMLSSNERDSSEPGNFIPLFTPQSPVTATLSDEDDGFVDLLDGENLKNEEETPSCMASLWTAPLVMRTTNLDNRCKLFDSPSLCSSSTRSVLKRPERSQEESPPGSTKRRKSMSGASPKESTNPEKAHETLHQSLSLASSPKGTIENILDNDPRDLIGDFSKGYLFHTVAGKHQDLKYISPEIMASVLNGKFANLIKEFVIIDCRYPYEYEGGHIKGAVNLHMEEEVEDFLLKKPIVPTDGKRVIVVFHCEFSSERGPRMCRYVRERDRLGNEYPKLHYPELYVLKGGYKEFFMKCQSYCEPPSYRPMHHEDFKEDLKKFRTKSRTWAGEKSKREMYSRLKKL
# [2] = test system: Cdk6; test: in vitro kinase assay of Cdk6 immunoprecipitated from treated TSU-Pr1 cells; assay type: cell-based, human; details: 3.33 μM, TSU-Pr1, as early as 3 hours in drug
# Protocol: (§1) TSU-Pr1 cells were treated for 24 hours with either DMSO or 3.33 μM dysidiolide. Cells were pulse-labeled for 30 min with bromodeoxyuridine (BrdU) and analyzed by FACS. The R@ window contains BRDU-positive, S-phase cells. Consistent with the proposed inhibitory effect of dysidiolide on the positive cell cycle regulator Cdc25. the drug inhibited the activity of cyclin-dependent kinases (Cdk). Cdk4, 6 and 2 were immunoprecipitated from DMSO- or drug-treated TSU-Pr1 cell cultures. Activity was examined in vitro kinase assays. The activity of the three Cdks was inhibited in drug-treated cells, as early as 3 hours in drug.
# (§2) In vitro kinase assays of Cdk. TSU-Pr1 cells were treated with 3.33 μM dysidiolide for 0-24 hours. Samples were collected at various times and the activity of Cdk4, 6 and 2 was determined. Cdks were immunoprecipitated with specific antibodies and incubated with radiolabeled ATP plus either histH1 (for Cdk2) or GST-Rb (for Cdk4 and 6). Reactions were separated on SDS-polyacrylamide gels and the amount of phosphorylated product was determined by radiometric analysis.
# [3] = test system: Cdk4; test: in vitro kinase assay of Cdk4 immunoprecipitated from treated TSU-Pr1 cells; assay type: cell-based, human; details: 3.33 μM, TSU-Pr1, as early as 3 hours in drug
# Protocol: as §1, §2
smiles,measurement,setting,value
C=C(C)CCC[C@@]1(C)CCC[C@H]2C1=CC[C@H](C)[C@]2(C)C[C@H](O)C1=CC(=O)O[C@@H]1O (racemic) [dysidiolide],inhibition of human cdc25A protein phosphatase,[1],potent inhibitor
same,Cdk6 activity,[2],inhibited
same,Cdk4 activity,[3],inhibited
